In test [1] the test system is NRF2, P53, mitochondrial OXPHOS complexes. The experiment in a line: Western blot of kidney cortex. The class given is in vivo, mouse. The method, then:
Approximately 5 mg of kidney cortex from each mouse was homogenized in cold RIPA buffer. After centrifugation, the supernatant was collected and protein concentration was determined using the Bradford assay (Thermo Scientific, Waltham, Mass.). Approximately 30 μg of protein was subjected to denaturing SDS-PAGE. The gel-separated proteins were transferred to a 0.45 μm nitrocellulose membrane, followed by standard Western blot protocol.
Primary antibodies Nrf2 (CAT #MBS2538072, MyBiosource, San Diego, Calif.), P53 (CAT #928, Cell Signaling Technology, Danvers, Mass.), and GAPDH (CAT #2118, Cell Signaling Technology) were diluted at 1:1000, while Total OXPHOS Cocktail (CAT #ab110413, Abcam, Los Angeles, Calif.) was diluted at 1:250. HRP-conjugated secondary antibodies (Thermo Scientific): goat anti-mouse IgG and anti-rabbit igG were diluted at 1:5000. The ECL reagent was used to develop protein signals, and images were captured by the ChemiDoc imaging system (Bio-Rad, Hercules, Calif.).

The subject of test [2] is CIS-resistant A2780 ovarian cancer cells. Put plainly: Cell viability of cisplatin-resistant A2780 cells, UA plus CIS. The class given is cell-based. Conditions: alone vs combination at the same concentrations.
For test [3], the system named is renal apoptosis. Put plainly: TUNEL immunofluorescence of kidney sections. Type of test: in vivo, mouse. The text has this: Kidney sections were deparaffinized in xylene, rehydrated, and washed. After antigen retrieval, tissue sections were stained with fluorescein-labeled terminal deoxynucleotidyl transferase dUTP nick end labeling (TUNEL) kit (Roche, Mannheim, Germany). Slides were mounted using Vectashield Mounting Media containing DAPI (Vector Laboratories, Burlingame, Calif.). Tissue sections were imaged using the EVOS FL fluorescence microscope at 20× original magnification. TUNEL-positive cells from ten fields per kidney section and five sections per group of at least four animals were quantified using the ImageJ software's particle counter by thresholding for green fluorescence.

The test system of test [4] is miRs and stress responsive genes. The experiment in a line: Real-time PCR of renal cortex (miRs and stress responsive genes). The class given is in vivo, mouse. As to the method: Approximately 5 mg of kidney cortex was homogenized in Trizol solution. Micro RNA and large RNA were sequentially extracted and purified with E.Z.N.A. Micro RNA Kit (Omega Bio-tek, Norcross, Ga.) following manufacturer instructions. RNA concentrations were determined using the NanoQuant plate reader (Tecan Infinite M200). Reverse transcription for large RNA and miRNA were separately carried out using iScript gDNA Clear cDNA Synthesis Kit (Bio-Rad) and the miScript II RT Kit (Qiagen, Hilden, Germany), respectively. HiSpec Buffer was used in the latter RT reaction to target mature miRNA, and 1 μg of template RNA was used for all RT reactions. The CFX96 Touch Real-Time PCR Detection System (Bio-Rad) was used for qPCR. For gene expression, cDNA was amplified using appropriate primers (see Table 1), along with the iTaq Universal SYBR Green Supermix (Bio-Rad). Primers were pre-designed and validated by Harvard PGA Primerbank.
For miRNA expression, cDNA was amplified using miScript Primer Assays for miR-192-5p and miR-140-5p (Qiagen), along with the miScript SYBR Green PCR Kit (Qiagen). ΔCt values were calculated with β-actin (gene expression) or RNU6 (miRNA) normalization, and fold change of the gene of interest between groups was expressed as 2^−ΔΔCt.
(Quantitative PCR measures a nucleic acid by following its amplification.)

The test system of test [5] is intracellular NAD. Put plainly: Intracellular NAD+ measurement in kidney cortex. Type of test: in vivo, mouse. Conditions: normalized to total protein. As to the method: Approximately 5 mg of kidney cortex from each mouse was homogenized in cold RIPA buffer. After centrifugation, approximately 50 μL of supernatant was processed in triplicate using Amplite Fluorimetric NAD Assay Kit (AAT Bioquest, Sunnyvale, Calif.) while following manufacturer instructions. Fluorescence at 420/480 nm was measured using the plate reader (Tecan Infinite M200) and NAD concentration determined using a standard curve constructed on the same day of the experiment. Protein concentration of the lysate was determined by the Bradford Assay (Bio-Rad) and served as normalization.

The mark [6] stands for this setting: CIS control compared to the P2Ns-GA UA and negative control groups.
[7] abbreviates: CIS control compared with the P2Ns-GA UA and negative control groups.
Where [8] appears, read: at sacrifice, normalized to U6 snRNA.

Structures are written as SMILES.

As for `N.N.[Cl][Pt][Cl]` [CIS, Cis-diamminedichloridoplatinum], in test [1] (Western blot, kidney cortex), the “mitochondrial complexes I, II, III, and IV / deficiencies in oxidative phosphorylation” value is listed as “marked decreases”. In addition, the “renal expression of the NRF2 protein” value in test [1] (compared to the P2Ns-GA UA and negative control groups) is “significantly higher”. In test [2], the “cell death / cell viability” value is recorded as “failed to cause cell death”. In addition, the “renal apoptosis (TUNEL positive cells)” value in test [3] is on record as “increased incidences”. Further, in test [4] (setting [6]), the “renal expression of Mt1 (NRF2-inducible gene)” value was 8-12 fold, the “renal expression of Srxn1 (NRF2-inducible gene)” value is given as 4-5 fold and the “renal expression of Txnrd1 (NRF2-inducible gene)” value is on record as 7-14 fold. Moreover, in test [4] (setting [7]), the “renal expression of Atf3 (P53-inducible gene)” value is 3-4 fold, the “renal expression of Cdkn1a (P21) (P53-inducible gene)” value is given as 7-49 fold and the “renal expression of Trp53inp1 (SIP) (P53-inducible gene)” value was 9-12 fold. In test [4] (setting [8]), the “renal miR-140-5p expression” value was “reductions” and the “renal miR-192-5p expression” value was “reductions”. In addition, in test [4] (normalized to β-actin), the PARP1 expression result is given as “elevated” and the “expression of genes associated with hypoxia (HIF1α, Pgk1)” value is given as “decreased expression”. In addition, the “intracellular NAD” value in test [5] is recorded as “reductions”.

For the compound `O=c1oc2cc(O)ccc2c2ccc(O)cc12` [UA, 3,8-Dihydroxybenzo[c]chromen-6-one], the “cell death / cell viability” value in test [2] was “failed to cause cell death”.

(Values after patent US11504339B2, “Compositions comprising urolithin a and uses thereof in treating kidney injury” (priority 2020, dated 2022).)
